# Test results from patent publication US20240277682A1, “PHARMACEUTICAL HYDRONIDONE FORMULATIONS FOR DISEASES” (Gyre Therapeutics, Inc., priority 2021, published 2024).
# Key:
# [1] = Double-blind placebo-controlled tolerability study of single and multiple ascending doses in healthy subjects (Example 6); format: in vivo; conditions: for ALT / AST: one subject
# Text: The main objective of this study was to evaluate the tolerability of single and multiple ascending doses of Hydronidone in healthy subjects to support further Phase 1 studies as well to provide supportive information for dosage regimen in Phase II clinical trials.
# This was a randomized, double-blind, placebo-controlled, in-patient study of single and multiple escalating doses of Hydronidone in healthy Chinese male and female subjects, 18-45 years of age, satisfying all inclusion and exclusion criteria. Hydronidone 100 mg and 200 mg capsule dosage strengths were used in the study. In every cohort, the subjects were randomly assigned to Hydronidone or placebo at a ratio of 3:1.
# The single-dose component of the trial included 30 subjects that received 100 mg, 200 mg, 400 mg, 600 mg and 800 mg of Hydronidone, respectively (6 subjects/cohort). The post-dose observations were performed 24 hrs following the dosing. All subjects have completed the trial. […] Mild transient dizziness following administration of the test article was reported in one subject in each of the 800 mg Hydronidone and placebo cohorts. The dizziness resolved on its own, without sequelae. The post-dose values of some of the laboratory parameters were abnormal, both in Hydronidone and placebo groups. However, these changes were not considered clinically significant.
# The multiple-dose component of the trial included 20 subjects assigned to receive 600 mg (8 subjects) three times per day (TID) (total daily dose of 1800 mg), or 800 mg of Hydronidone (12 subjects) TID (total daily dose of 2400 mg) for ten (10) consecutive days. Due to several cases of AEs of hypertriglyceridemia (4 out of 8 subjects) observed in the Hydronidone 600 mg TID dose group, the subjects (n=8) in the Hydronidone TID 800 mg dose group were divided into two subgroups, each comprising of 4 subjects. […] Due to inadvertent omission of the blood glucose test in the first sub-group (all four subjects) of the Hydronidone 800 mg TID dose group at the final study visit, per Principal Investigator decision, the enrollment was extended to include new four (4) subjects, increasing the total number of subjects in this dose group to 12. The safety evaluations were performed pre-dose, on the Day 5 of dosing, and 24 hr after the last dose of the 10-day dosing period.
# [2] = Crossover study of food effect on safety, tolerability and PK of a single oral dose (Example 8); format: in vivo, human
# Description: This was a randomized, open-label, 2-period, crossover PK study of effects of food on safety, tolerability, and PK of single oral doses of Hydronidone in healthy Chinese subjects. The PK parameters of the M3 and M4 metabolites of Hydronidone, in presence or absence of food were also determined.
# Twelve healthy Chinese subjects were enrolled, dosed and in this inpatient study. They were randomly assigned in two groups/periods to receive a single oral 600 mg (3×200 mg) dose of Hydronidone either under fasted, or fed (high fat) conditions. Within each treatment period, PK blood samples were collected at: 0 (pre-dose), 10 min, 20 min, 30 min, 40 min, 1 hr, 1.5 hr, 2 hr, 3 hr, 4 hr, 5 hr, 6 hr, 8 hr, 10 hr, 12 hr, 16 hr, and 24 hr, and 48 hr post-dose. The wash-out period between the two periods in this trial was 48 hours.
# [3] = system: CCl4 and western diet (WD) induced NASH; assay: (CCl4+HFD) induced NASH model in mice; format: in vivo
# Text: The total NASH score was lower at dosage of 15 milligram per kilogram (mpk) and 50 mpk.
# [4] = In vitro Phase I metabolism in human liver microsomes; format: in vitro ADME
# Description: The in vitro Phase I metabolism of hydronidone was evaluated by incubating human liver microsomes with hydronidone for 60 minutes.
# [5] = In vitro Phase 2 metabolism in human liver microsomes; format: in vitro ADME; conditions: 30 minutes incubation
# [6] = 800 mg TID, fifth day of dosing
# [7] = 800 mg TID, repeated test on study day 6
# [8] = single oral 600 mg dose of Hydronidone, fed vs fasted
smiles,measurement,setting,value
"Cc1ccc(=O)n(-c2ccc(O)cc2)c1 [Hydronidone, N-(4-hydroxyphenyl)-5-Methyl-2-pyridone]",instances of hypertriglyceridemia,"[1]; 600 mg TID, 10 days",3 instances
same,number of AEs reported,"[1]; 600 mg TID, 10 days",7 AEs
same,instances of hyperlipidemia,"[1]; 800 mg TID, 10 days",3 instances
same,instances of liver dysfunction,"[1]; 800 mg TID, 10 days",3 instances
same,number of AEs reported,"[1]; 800 mg TID, 10 days",14 AEs
same,deaths and SAEs,"[1]; multiple-dose component, 600 or 800 mg TID, 10 days",No deaths nor SAEs were reported
same,ALT,[1]; [6],79 U/L
same,AST,[1]; [6],47 U/L
same,ALT,[1]; [7],101 U/L
same,AST,[1]; [7],61 U/L
same,subjects with mild transient dizziness,[1]; single dose 800 mg cohort,one
same,safety and tolerability,"[1]; single dose 100, 200, 400, 600, 800 mg, healthy subjects",safe and well tolerated at all doses tested
same,deaths and serious adverse events,[1]; single-dose component,No deaths nor serious adverse events (SAEs) were reported
same,effect of food (high-fat meal) on Cmax,[2]; [8],decreasing their Cmax values
same,effect of food (high-fat meal) on rate of absorption,[2]; [8],delayed the rate of absorption
same,safety and tolerability,"[2]; single oral 600 mg dose, fed or fasted","safe and well tolerated, without SAEs or AEs reported"
same,total NASH score,[3]; 15 milligram per kilogram (mpk),lower
same,fibrosis and cell ballooning (H&E staining),[3]; 15 mpk,significantly inhibited
same,fibrosis and cell ballooning (H&E staining),[3]; 50 mpk,significantly inhibited
same,total NASH score,[3]; 50 mpk,lower
same,potency compared with pirfenidone,[3]; NASH model in mice,more potent than pirfenidone
same,effect on CCl4 and western diet (WD) induced NASH (H&E staining),[3]; mice,protective effect
same,formation of metabolites,[4],no formation of metabolites was observed
same,generation of the M4 metabolite,[5],detected
